ChEMBL document CHEMBL1201862, “PubChem BioAssay data set” (2004)
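Dose response: 5 concentrations. Exposure: 48 h. Format: 96-well plates. Endpoint: linear interpolation; highest concentration if not reached. GI50: concentration for 50% inhibition of growth.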 Activity calls are given as the source filed them. Rule as the data show it: active = GI50 up to about 1.1 µM and inactive = higher.

What was measured:
Assay in all cases: inhibition of tumour cell growth, NCI panel, 48 h
[1] = tested on: OVCAR-8
[2] = tested on: SN12C
[3] = tested on: NCI-H23
[4] = tested on: COLO 205
[5] = tested on: IGROV-1
[6] = tested on: KM-20L2
[7] = tested on: RPMI-8226
[8] = tested on: RXF 631
[9] = tested on: DLD-1
[10] = tested on: SK-MEL-2
[11] = tested on: M19-MEL
[12] = tested on: HOP-62
[13] = tested on: SF-539
[14] = tested on: SNB-19
[15] = tested on: Malme-3M
[16] = tested on: CAKI-1
[17] = tested on: 786-0
[18] = tested on: ACHN
[19] = tested on: OVCAR-3
[20] = tested on: HCC 2998
[21] = tested on: NCI-H522
[22] = tested on: A549
[23] = tested on: SK-MEL-5
[24] = tested on: K562
[25] = tested on: A498
[26] = tested on: HT-29
[27] = tested on: SNB-78
[28] = tested on: XF498
[29] = tested on: UACC-62
[30] = tested on: SF-295
[31] = tested on: U-251
[32] = tested on: HOP-92
[33] = tested on: HL-60
[34] = tested on: LOX IMVI
[35] = tested on: KM12
[36] = tested on: HCT-116
[37] = tested on: SK-OV-3
[38] = tested on: LXFL 529
[39] = tested on: OVCAR-5
[40] = tested on: EKVX
[41] = tested on: SK-MEL-28
[42] = tested on: UACC-257
[43] = tested on: NCI-H460
[44] = tested on: DMS-273
[45] = tested on: CCRF-CEM
[46] = tested on: M14
[47] = tested on: NCI-H226
[48] = tested on: SW-620
[49] = tested on: TK-10
[50] = tested on: UO-31
[51] = tested on: SNB-75
[52] = tested on: RXF 393
[53] = tested on: MOLT-4
[54] = tested on: OVCAR-4

Measured: GI50

O=C(O)CSc1nnc(-c2ccco2)[nH]1
inactive: [1] > 100 µM | [2] > 100 µM | [3] > 100 µM | [4] > 100 µM | [5] > 100 µM | [6] > 100 µM | [7] > 100 µM | [8] > 100 µM | [9] > 100 µM | [10] > 100 µM | [11] > 100 µM | [12] > 100 µM | [13] > 100 µM | [14] > 100 µM | [15] > 100 µM | [16] > 100 µM | [17] > 100 µM | [18] > 100 µM | [19] > 100 µM | [20] > 100 µM | [21] > 100 µM | [22] > 100 µM | [23] > 100 µM | [24] > 100 µM | [25] > 100 µM | [26] > 100 µM | [27] > 100 µM | [28] > 100 µM | [29] > 100 µM | [30] > 100 µM | [31] > 100 µM | [32] > 100 µM | [33] > 100 µM | [34] > 100 µM | [35] > 100 µM | [36] > 100 µM | [37] > 100 µM | [38] > 100 µM | [39] > 100 µM | [40] > 100 µM | [41] > 100 µM | [42] > 100 µM | [43] > 100 µM | [44] > 100 µM | [45] > 100 µM | [46] > 100 µM | [47] > 100 µM | [48] > 100 µM | [49] > 100 µM | [50] > 100 µM | [51] 95.5 µM | [52] > 100 µM | [53] > 100 µM | [54] > 100 µM
